Earlier results as cited in patent publication US8828415B2, “Microcapsules with acetylene carbamide-polyurea polymers and formulations thereof for controlled release” (priority 2006, dated 2014).

Legend:
[1] = for cancer (Ames test): MSDS of Sigma-Aldrich and CYTEC
mice = conditions: for 4 h

| SMILES | pulmonary sensitization in guinea pigs (guinea pigs) | affects respiratory system in humans at long term (3 y) (humans) | cancer (Ames test) [1] | cancer: CMR category ([1]; MSDS) | cancer: IARC classification ([1]; MSDS) | acute inhalation toxicity (LC50) (mice) |
| --- | --- | --- | --- | --- | --- | --- |
| Cc1ccc(N=C=O)cc1N=C=O [TDI, 2,4-toluenediisocyanate] | Yes | Yes | carcinogenic (Ames test) | CMR Cat. Carcinogen 3 | IARC carrcinogen 2B | 10 ppm for 4 h - mice |
| CC(C)(N=C=O)c1cccc(C(C)(C)N=C=O)c1 [TMXDI, alpha-, alpha-, alpha-, alpha-tetramethyl xylylene diisocyanate] | no | no | not carcinogenic |  |  | 27 ppm for 4 h - |
